Several values for one entry are separate records, joined by “and”; a condition that tells them apart may be missing. Equal values may be shown once.
Experiments:
[1] = tested on: Male Harlan Sprague-Dawley rats; test: Development of epilepsy after status epilepticus (SE) induced by electrical stimulation of the amygdala; chronic treatment started 1 wk after SE; format: in vivo; settings: for Number of animals with mild (≦1 seizure/day) epilepsy, during treatment / Number of animals with severe (>1 seizure/day) epilepsy, during treatment / Number of animals with mild (≦1 seizure/day) epilepsy, All / Number of animals with severe (>1 seizure/day) epilepsy, All / Number of animals with mild (≦1 seizure/day) epilepsy, after treatment / Number of animals with severe (>1 seizure/day) epilepsy, after treatment: rats after SE; for Number of animals with mild (≦1 seizure/day) epilepsy, during treatment / Number of animals with severe (>1 seizure/day) epilepsy, during treatment: atipamezole 100 μg/kg/h s.c. minipump for 9 wk starting 1 wk after SE, DZP 20 mg/kg i.p. at 3 h after beginning of SE; for Number of animals with severe (>1 seizure/day) epilepsy, during treatment: animals/epileptic animals; for Number of animals with mild (≦1 seizure/day) epilepsy, All / Number of animals with severe (>1 seizure/day) epilepsy, All: both follow-ups (All); for Number of animals with mild (≦1 seizure/day) epilepsy, after treatment / Number of animals with severe (>1 seizure/day) epilepsy, after treatment: follow-up after the 9 wk treatment
Method: To mimic the clinical environment, α2-adrenoceptor antagonist treatment with atipamezole was started 1 wk after induction of status epilepticus (SE) with subcutaneous Alzet minipumps and continued for 9 wk. Two independent studies were carried out.
Male Harlan Sprague-Dawley rats (300-350 g; Netherlands) were used in this study. After implantation of electrodes, rats were housed in individual cages at a temperature of 19-21° C., with humidity at 50-60% and lights on 7.00-19.00. Standard food pellets and water were freely available.
The animals were anaesthetized with an intraperitoneal injection of sodium pentobarbital (60 mg/kg) and chloral hydrate (60 mg/kg) and inserted into a stereotaxic frame (lambda and bregma at the same horizontal level). A pair of stimulating electrodes (0.5 mm tip separation) was implanted into the lateral nucleus of the left amygdala (3.6 mm posterior, 5.0 mm lateral, and 6.5 mm ventral to bregma). One stainless steel screw was inserted into the skull above the right frontal cortex and served as cortical electrode (3 mm anterior to the bregma, 2 mm lateral to midline). Two stainless steel screws were inserted into the skull bilaterally over the cerebellum, which served as indifferent and ground electrodes. The electrodes were fixed with dental acrylate. The rats were allowed to recover from surgical operation for 14 d, after which electrical stimulation was initiated.
After discharge threshold was assessed by stimulating the amygdala with a one-second train of one-msec bipolar square-wave pulses (60 Hz, 50-400 μA peak to peak). Only those rats in which after discharges could be induced at 400 μA or at lower current level were included in the study.
To induce SE, the amygdala was stimulated repeatedly at 500 msec intervals with a train of pulses lasting 100 msec (1 msec 60 Hz bipolar pulses at 400 μA peak to peak). […] Once the criterion of SE was achieved, no further stimulation was given. After 3 h, SE was terminated by injecting diazepam 20 mg/kg (i.p.).
Vehicle (0.9% saline, Natrosteril 9 mg/ml, Baxter, Vantaa, Finland) was administered via subcutaneous Alzet minipumps with a pumping rate of 9.15 μl/h in 1-wk and 2.61 μl/h in 8-wk pumps starting 1 wk after stimulation. Minipumps were implanted subcutaneously to the back between the scapulae according to the instructions provided by manufacturer. For implantation, animals were anesthetized with an intraperitoneal injection of sodium pentobarbital (60 mg/kg) and chloral hydrate (60 mg/kg).
Diazepam was administered at 3 h after the beginning of SE (20 mg/kg, i.p.). Atipamezole treatment was started 1 wk after SE. Compound was administered with subcutaneous Alzet osmotic minipumps and continued for 9 wk. Atipamezole was dissolved into sterile 0.9% NaCl. The concentration of atipamezole was adjusted according to the weight of the rat and pumping rate to obtain a constant flow-rate of 100 μg/kg/h.
• DZP (diazepam)+vehicle (n=11): Rats with SE treated with DZP (20 mg/kg, i.p.) at 3 h after the beginning of SE. Chronic treatment with vehicle (0.9% NaCl, subcutaneous Alzet minipumps) for 9 wk starting 1 wk after SE. • DZP+atipamezole (n=7): Rats with SE treated with DZP (20 mg/kg, i.p.) at 3 h after the beginning of SE. Chronic treatment with atipamezole (100 μg/kg/h, subcutaneous Alzet minipumps) for 9 wk starting 1 wk after SE.
Controls (n=9): Operated, non-stimulated and non-treated controls.
Ø+vehicle (n=11): No treatment at 3 h after the beginning of SE. Chronic treatment with vehicle (0.9% NaCl in subcutaneous Alzet minipump) for 9 wk starting 1 wk after SE.
DZP+vehicle (n=10): Diazepam treatment (20 mg/kg, i.p.) at 3 h after the beginning of SE. Chronic treatment with vehicle (0.9% NaCl in subcutaneous Alzet minipump) for 9 wk starting 1 wk after SE.
Ø+atipamezole (n=10). No treatment at 3 h after the beginning of SE. Chronic treatment with atipamezole (100 μg/kg/h, subcutaneous Alzet minipumps) for 9 wk starting 1 wk after SE.
DZP+atipamezole (n=12). […]

kainate-induced seizures = settings: acute administration; Halonen T. et al., Brain Res 1995; cited from earlier work
alpha2-adrenoceptor = settings: background statement, no species differences (human and rodent); cited from earlier work
cortical excitability = settings: oral administration, humans; Plewnia C et al., Neurosci Lett 2001; cited from earlier work
[2] = listed as Ø + atipamezole, hydrochloride
[3] = listed as Ø/DZP + atipamezole, hydrochloride

In the case of `CN1C(=O)CN=C(c2ccccc2)c2cc(Cl)ccc21` [DZP + vehicle], the “Rats with >1 seizure/day” value ([1]; data combined from the two studies) is reported as 50%, the “Number of animals with mild (≦1 seizure/day) epilepsy, during treatment” value [1] is reported as 1/4 and 6/10 and the “Number of animals with severe (>1 seizure/day) epilepsy, during treatment” value [1] is reported as 3/4 and 4/10. For the same compound, the “Number of animals with mild (≦1 seizure/day) epilepsy, All” value (“Number … (≦1 seizure/day) epilepsy, All” below) [1] was 2/4 and 5/10, the “Number of animals with severe (>1 seizure/day) epilepsy, All” value (“Number … (>1 seizure/day) epilepsy, All” for short) [1] was 2/4 and 5/10 and the “Number of animals with mild (≦1 seizure/day) epilepsy, after treatment” value [1] was 1/3 and 5/9. For the same compound, the “Number of animals with severe (>1 seizure/day) epilepsy, after treatment” value [1] was 2/3 and 4/9.
For `CCC1(c2c[nH]cn2)Cc2ccccc2C1.Cl` [atipamezole, 4-(2-ethyl-2,3-dihydro-1H-inden-2-yl)-1H-imidazole hydrochloride], the “Number of animals with severe (>1 seizure/day) epilepsy, during treatment” value [1, 2] was 1/8, the “Number of animals with severe (>1 seizure/day) epilepsy, during treatment” value [1, 3] was 1/20 and the “Number of animals with mild (≦1 seizure/day) epilepsy, during treatment” value [1, 2] was 7/8. For the same compound, the “Number of animals with mild (≦1 seizure/day) epilepsy, during treatment” value [1, 3] was 19/20, the “Number … (≦1 seizure/day) epilepsy, All” value [1, 2] was 7/8 and the “Number … (>1 seizure/day) epilepsy, All” value [1, 2] was 1/8. For the same compound, the “Number … (≦1 seizure/day) epilepsy, All” value [1, 3] was 21/22, the “Number … (>1 seizure/day) epilepsy, All” value [1, 3] was 1/22 and the “Number of animals with mild (≦1 seizure/day) epilepsy, after treatment” value [1, 2] was 6/7. For the same compound, the “Number of animals with severe (>1 seizure/day) epilepsy, after treatment” value [1, 2] was 1/7, the “Number of animals with mild (≦1 seizure/day) epilepsy, after treatment” value [1, 3] was 19/20 and the “Number of animals with severe (>1 seizure/day) epilepsy, after treatment” value [1, 3] was 1/20. For the same compound, the Effect on epileptogenesis ([1]; summary statement, epilepsy that develops is milder and can be non-progressive) was “clear disease-modifying effect on epileptogenesis”, the “Effect on kainate-induced seizures” value (kainate-induced seizures) was “proconvulsant effect” and the alpha2/alpha1-selectivity ratio (alpha2-adrenoceptor) was “high”.
In the case of `COC(=O)[C@@H]1[C@H]2C[C@H]3c4[nH]c5ccccc5c4CCN3C[C@@H]2CC[C@@H]1O` [yohimbine], the “Cortical excitability induced by transcranial magnetic stimulation” value (cortical excitability) is listed as “increased cortical excitability”.

Reference: patent publication US20080207719A1, “Treatment of Epilepsy” (ORION CORPORATION, priority 2003, published 2008)
